Biological target: T1, Endopolygalactyuronase (Chondrostereum purpureum, UniProt P79074)
T1 sequence (P79074 whole entry): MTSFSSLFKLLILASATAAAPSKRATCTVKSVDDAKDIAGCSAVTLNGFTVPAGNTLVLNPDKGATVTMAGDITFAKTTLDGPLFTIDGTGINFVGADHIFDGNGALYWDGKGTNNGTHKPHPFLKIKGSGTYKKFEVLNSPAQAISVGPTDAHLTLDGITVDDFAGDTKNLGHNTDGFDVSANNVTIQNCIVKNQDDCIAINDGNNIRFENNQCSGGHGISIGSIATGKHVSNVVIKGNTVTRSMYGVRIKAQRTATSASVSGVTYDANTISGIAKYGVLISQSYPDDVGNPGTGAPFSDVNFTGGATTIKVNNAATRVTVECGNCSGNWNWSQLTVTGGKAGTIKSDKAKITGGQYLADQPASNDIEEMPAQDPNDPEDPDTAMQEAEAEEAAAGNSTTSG
Test: Dissociation constant against endo-polygalacturonase 1

In the case of `CO[C@H]1O[C@@H](C(=O)O)[C@H](S[C@H]2O[C@@H](C(=O)O)[C@H](O[C@H]3O[C@@H](C(=O)O)[C@H](O)[C@H](O)[C@@H]3O)[C@H](O)[C@@H]2O)[C@H](O)[C@@H]1O`, the Kd is reported as 200 nM.

— ChEMBL document CHEMBL1143489, “Design, synthesis, and enzymatic property of a sulfur-substituted analogue of trigalacturonic acid” (Bioorg Med Chem Lett, 2005)
